Results: PMC6120877, “Intriguing role of water in protein-ligand binding studied by neutron crystallography on trypsin complexes” (Nature Communications, 2018)

Assays:
bovine trypsin = target: T1, bovine trypsin (Bos taurus, UniProt P00760); test: Kinetic fluorescence enzyme inhibition assay, trypsin; format: biochemical; details: for Ki: fluorescence assay, D-Phe-Pro derivatives
T1 construct: purchased Worthington Biochemical Corporation LS003707
T1 sequence (P00760 24-246): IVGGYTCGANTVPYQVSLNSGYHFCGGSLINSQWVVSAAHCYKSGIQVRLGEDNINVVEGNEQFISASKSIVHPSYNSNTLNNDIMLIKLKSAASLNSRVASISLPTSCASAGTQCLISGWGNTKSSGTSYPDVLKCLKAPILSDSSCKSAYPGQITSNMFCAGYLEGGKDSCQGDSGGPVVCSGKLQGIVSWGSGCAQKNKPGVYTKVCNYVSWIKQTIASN
Procedure: Following the same approach as used in an earlier study, kinetic data were obtained in black 96-well plates using a Fluoroskan Ascent fluorometer (Thermo Fisher Scientific, Vantaa/Finland; λex = 355 nm, λem = 460 nm). The assay was performed at room temperature in a buffer composed of 43 mM Tris pH 7.8, 132 mM NaCl and 0.0086 % (w/v) PEG 8000. The final trypsin concentration was 65 pM. […] The D-Phe-Pro analogs were dissolved in DMSO and further diluted in buffer to yield a final DMSO concentration in the assay well below 1% (v/v). Mes-d-Arg-Gly-Arg-AMC (Mes = mesyl; AMC = […]) available from a previous study was used as the substrate. […] The uninhibited trypsin-catalyzed reaction was investigated in parallel at the three substrate concentrations 6.3, 12.5, and 25 µM. […] For this purpose, a non-linear fit to the Michaelis-Menten equation modified for reversible competitive inhibitors was used.

bovine β-trypsin [1] = target: T2, bovine β-trypsin (Bos taurus, UniProt P00760); test: Direct ITC titration, trypsin; format: binding; details: for number of protons transferred from the buffer onto trypsin upon complex formation (slope of interpolation function): ∆H° vs. buffer ionization enthalpy, three buffers
T2 construct: dialyzing a solution of bovine β-trypsin (Sigma Aldrich, product number T8003); purchased Sigma Aldrich T8003
T2 sequence (P00760 24-246): T1 sequence (P00760 24-246)
Procedure: To determine dissociation constants for trypsin:inhibitor complexes, two different isothermal titration calorimetry (ITC) titration protocols were used. […] Protein samples were prepared by dialyzing a solution of bovine β-trypsin (Sigma Aldrich, product number T8003) against a buffer composed of 80 mM NaCl, 10 mM CaCl2, 0.1 % (w/v) PEG 8000 and 100 mM HEPES, Tricine or Tris at a pH of 7.6 and a temperature of 4 °C while ligands were dissolved in buffer. […] Titrations were performed in three different buffer systems to enable the correction for any proton transfer occurring between buffer and protein upon complex formation. For this purpose, the obtained ∆H° values were plotted against the ionization enthalpy of the used buffer yielding a buffer-corrected enthalpy as the intercept (for more details see footnote b in Supplementary Tables 2 and 3). […] Applying the same protocol and data analysis scheme as used in an earlier study, ITC titrations were performed on an ITC200 device (GE Healthcare) at 25 °C with a reference power of 5 µcal s^−1. The ITC protocol consisted of an initial 0.3 µl volume injection and of 20–25 injections with a volume between 1.5 and 1.8 µl separated by a 220 s time interval. For data analysis, the method described by Turnbull et al. was applied.

bovine β-trypsin [2] = target: T2, bovine β-trypsin; test: Displacement ITC titration, trypsin (displacement ligand compound 2); format: binding; details: HEPES
Procedure: Sample preparations, measurements and data analyses were performed using the same approach as for our earlier study, which is described in the following. […] ITC data were collected using an ITC200 device (GE Healthcare) at 25 °C with a reference power of 5 µcal s^−1. An initial 0.3 µl volume injection was followed by 19 injections with a volume of 1.9 µl.

human thrombin = target: T3, human thrombin (Homo sapiens, UniProt P00734); test: Kinetic fluorescence enzyme inhibition assay, thrombin; format: biochemical; details: D-Phe-Pro derivatives
T3 construct: The analogous assay was applied to human thrombin, which was kindly provided by CSL Behring; purchased CSL Behring

[3] = buffer-corrected (average over three buffers), 3% (v/v) DMSO
[4] = buffer-corrected (difference between ∆G° and ∆H°), 3% (v/v) DMSO
[5] = buffer-corrected (intercept at ionization enthalpy 0), 3% (v/v) DMSO
[6] = direct titration, HEPES, 3% (v/v) DMSO
[7] = direct titration, Tricine, 3% (v/v) DMSO
[8] = direct titration, Tris, 3% (v/v) DMSO

SMILES	Ki (bovine trypsin) [nM]	Kd (bovine β-trypsin [1]; [3]) [nM]	∆G° (bovine β-trypsin [1]; [3]) [kcal/mol]	–T∆S° (bovine β-trypsin [1]; [4]) [kcal/mol]	∆H° (bovine β-trypsin [1]; [5]) [kcal/mol]	Kd (bovine β-trypsin [1]; [6]) [nM]	–T∆S° (bovine β-trypsin [1]; [6]) [kcal/mol]	∆G° (bovine β-trypsin [1]; [6]) [kcal/mol]	∆H° (bovine β-trypsin [1]; [6]) [kcal/mol]	Kd (bovine β-trypsin [1]; [7]) [nM]	–T∆S° (bovine β-trypsin [1]; [7]) [kcal/mol]	∆G° (bovine β-trypsin [1]; [7]) [kcal/mol]	∆H° (bovine β-trypsin [1]; [7]) [kcal/mol]	Kd (bovine β-trypsin [1]; [8]) [nM]	–T∆S° (bovine β-trypsin [1]; [8]) [kcal/mol]	∆G° (bovine β-trypsin [1]; [8]) [kcal/mol]	∆H° (bovine β-trypsin [1]; [8]) [kcal/mol]	number of protons transferred from the buffer onto trypsin upon complex formation (slope of interpolation function) (bovine β-trypsin [1]; 3% (v/v) DMSO)	also measured
N=C(N)c1ccccc1 [Benzamidine, benzamidine]																			stronger inhibition of trypsin than N-amidinopiperidine (bovine trypsin; benzamidine vs. N-amidinopiperidine): about 10 fold; –T∆S° (bovine β-trypsin [1]; direct titration, HEPES): -3.59 ± 0.072 kcal/mol; ∆G° (bovine β-trypsin [1]; direct titration, HEPES): -6.38 ± 0.072 kcal/mol; ∆H° (bovine β-trypsin [1]; direct titration, HEPES): -2.8 ± 0.024 kcal/mol; –T∆S° (bovine β-trypsin [1]; direct titration, Tricine): -2.53 ± 0.14 kcal/mol; ∆G° (bovine β-trypsin [1]; direct titration, Tricine): -6.33 ± 0.0096 kcal/mol; ∆H° (bovine β-trypsin [1]; direct titration, Tricine): -3.8 ± 0.14 kcal/mol; –T∆S° (bovine β-trypsin [1]; direct titration, Tris): -1.58 ± 0.096 kcal/mol; ∆G° (bovine β-trypsin [1]; direct titration, Tris): -6.33 ± 0.0072 kcal/mol; ∆H° (bovine β-trypsin [1]; direct titration, Tris): -4.76 ± 0.096 kcal/mol; ∆G° (bovine β-trypsin [1]; direct titration, buffer-corrected (average over three buffers)): -6.36 kcal/mol; –T∆S° (bovine β-trypsin [1]; direct titration, buffer-corrected (difference between ∆G° and ∆H°)): -5.02 kcal/mol; ∆H° (bovine β-trypsin [1]; direct titration, buffer-corrected (intercept at ionization enthalpy 0)): -1.34 kcal/mol; number of protons transferred from the buffer onto trypsin upon complex formation (slope of interpolation function) (bovine β-trypsin [1]): -0.31; –T∆S° (bovine β-trypsin [2]): -2.44 ± 0.22 kcal/mol; ∆G° (bovine β-trypsin [2]): -6.31 ± 0.14 kcal/mol; ∆H° (bovine β-trypsin [2]): -3.85 ± 0.17 kcal/mol
N=C(N)N1CCC(CNC(=O)[C@@H]2CCCN2C(=O)[C@H](N)Cc2ccccc2)CC1.O=C(O)C(F)(F)F.O=C(O)C(F)(F)F [Compound 1]	1960 ± 264	3600	-7.43	-2.22	-5.21	3700 ± 200	-2.77 ± 0.072	-7.41 ± 0.048	-4.64 ± 0.072	3300 ± 300	-3.15 ± 0.12	-7.48 ± 0.048	-4.33 ± 0.12	3700 ± 600	-3.51 ± 0.17	-7.41 ± 0.096	-3.9 ± 0.14	0.12	Ki (human thrombin): 4.51 ± 0.25 nM
N=C(N)c1ccc(CNC(=O)[C@@H]2CCCN2C(=O)[C@H](N)Cc2ccccc2)cc1 [Compound 2]	15.2 ± 0.2	34	-10.2	-1.05	-9.13	38 ± 7	-1.65 ± 0.19	-10.1 ± 0.096	-8.48 ± 0.17	34 ± 3	-2.63 ± 0.096	-10.2 ± 0.048	-7.55 ± 0.096	31 ± 5	-2.87 ± 0.14	-10.2 ± 0.096	-7.39 ± 0.096	0.17	
